The results in this text go back to patent US5798365A, “Substituted quinoline derivatives, a process for their preparation, and their use” (Hoechst Aktiengesellschaft, priority 1994, dated 1998).

In assay [1] the target is T1, HIV reverse transcriptase (Human immunodeficiency virus type 1 group M subtype B, UniProt P04585).
T1 construct: purchased HT-Biotechnology LTD, Cambridge, UK; host or cells: E. coli
In words: Inhibition of HIV reverse transcriptase, scintillation proximity assay (SPA). The format is biochemical. The settings on record: RT-SPA, 60 min, 37° C., read-out: Reverse Transcriptase Asaay IC-50 (converted). As for the experimental part: Investigation of the ability of the substances to inhibit the HIV reverse transcriptase
The activity of the reverse transcriptase (RT) was measured by means of a scintillation proximity assay (SPA).
The reagent kit for the RT-SPA was obtained from Amersham/Buchler (Braunschweig). The RT enzyme (originating from HIV and cloned in E. coli) was provided by HT-Biotechnology LTD, Cambridge, UK.
The test was carried out in accordance with the supplier's (Amersham) methods manual--with the following modifications:
bovine serum albumin was added to the assay buffer to a final concentration of 0.5 mg/ml.
The test was carried out in Eppendorf reaction tubes using a mixture volume of […].
The supplier's RT concentrate (5000 U/ml) was diluted in 20 mM tris-HCl buffer; pH 7.2; 30% glycerol to an activity of 15 U/ml.
The assay mixtures were incubated for 60 min (at 37° C.).
After the reaction had been stopped and "developed" using the bead suspension, […] of assay mixture was transferred into 4.5 ml of 10 mM tris-HCl buffer; pH 7.4; 0.15M NaCl
and the tritium activity was measured in a β counter.
In order to carry out a preliminary test for inhibitor activity, the substances were dissolved in DMSO (stock solution concentration=1 mg/ml) and tested at 10^-1, 10^-2, 10^-3, etc. dilutions in DMSO.
In order to determine the IC50 values, the stock solutions of inhibitor were further diluted in 50 mM tris-HCl buffer, pH 8, and tested at suitable concentrations.
The concentration giving rise to 50% inhibition of the enzyme was ascertained from the graphic depiction of RT activity versus log Cinh.
(SPA uses beads or plates that emit light when radiolabelled molecules are held near them.)

The subject of a further assay is HIV. In words: Testing preparations against HIV in cell culture (infected human donor lymphocytes). It counts as cell-based. As to conditions: for MIC: Human immunodeficiency virus 1, 72 h, lowest concentration without giant cells; for IC50: Human immunodeficiency virus 1, Lymphocyte, 72 h. As for the experimental part: Testing preparations against HIV in cell culture
Description of the method
The complete medium additionally contains 20% foetal calf serum and 40 IU/ml recombinant interleukin 2.
Lymphocytes which have been isolated from fresh donor blood by means of Ficoll® gradient centrifugation are cultured, at 37° C. for 36 h and under 5% CO2, in complete medium in the added presence of […] phytohemagglutinin (Wellcome). After the addition of 10% DMSO, the cells are frozen at a cell density of 5×10^6 and stored in liquid nitrogen. For the experiment, the cells are thawed, washed in RPMI medium and cultured for 3-4 days in complete medium.
The preparations for testing were dissolved in DMSO at a concentration of 16.7 mg/ml and diluted to 1 mg/ml in complete medium. 0.4 ml of medium was initially introduced in 24-well multiwell plates. After 0.1 ml of the dissolved preparation had been added to the upper row of the plate, a geometrical dilution series was produced by transferring 0.1 ml on each occasion. Preparation-free controls always contained 0.4 ml of complete medium containing 0.5% DMSO.
Lymphocyte cultures having a cell count of 5×10^5 cells/ml were infected by adding a 1/50 volume of the supernatant from lymphocyte cultures infected with HIV. The titer of these culture supernatants was determined, by end point dilution, to be 1-5×10^6 infectious units/ml. After incubating at 37° C. for 30 min, the infected lymphocytes were centrifuged off and taken up once again in the same volume of medium. 0.6 ml of this cell suspension was added to each of the wells in the test plate. The assay mixtures were incubated at 37° C. for 3 days.
The infected cell cultures were examined under the microscope for the presence of giant cells, which indicate that the virus is multiplying actively in the culture. The lowest preparation concentration at which no giant cells appeared was defined as the inhibitory concentration against HIV (MIC value). As a control, the presence of HIV antigen in the supernatants from the culture plates was determined using a test for HIV antigen in accordance with the manufacturer's (Organon) instructions.

The mark [2] stands for this setting: HIV-infected lymphocytes, 3 days, 37° C.
The mark [3] stands for this setting: HIV-infected lymphocytes, 3 days, 37° C., read-out: IC-50.

In brackets after ≈: the same amount, converted by molar mass. Read-outs that look alike come from different tables or passages of the source.

On to `CCCC=C1c2cc(OC)ccc2NC(=S)C1(C)C` [Compound 42, E/Z-4-n-butylene-3,4-dihydro-3,3-dimethyl-6-methoxyquinolin-2(1H)-thione], for which the IC50 in assay [1] (molar value in parentheses) is 9 nM; in assay [1], 9.44 nM; in the assay on HIV (setting [3]), 2 ng/mL (≈ 0.00726 µM). The compound also returned an MIC in the assay on HIV (setting [2]) below 8 ng/mL.

Consider `CC(C)=C1c2cc(Cl)ccc2NC(=S)C1(C)C` [Compound 10], for which the IC50 in assay [1] (molar value in parentheses) was 116 nM; in assay [1] it was 117 nM; in the assay with HIV (HIV-infected lymphocytes, 3 days, unit as printed for compound 10, read-out: IC-50), 25 ng/mL (≈ 0.0941 µM).

On to `CCC/C=C1\c2cc(Cl)ccc2NC(=S)C1(C)C` [Compound 75, E-4-n-butylene-6-chloro-3,4-dihydro-3,3-dimethylquinolin-2(1H)-thione], for which the IC50 in assay [1] is below 3.57 nM; in the assay with HIV (setting [3]) it was around 1.8 ng/mL (≈ 0.00643 µM). In the assay on HIV (setting [2]), this compound returned an MIC of 4 ng/mL (≈ 0.0143 µM).

On to `CC/C=C1\c2cc(Cl)ccc2NC(=S)C1(C)C` [Compound 71], for which the IC50 in assay [1] (molar value in parentheses) is 5 nM; in assay [1], 3.76 nM. Further, the MIC in the assay on HIV (setting [2]) was found to be 1.6 ng/mL (≈ 0.00602 µM).

On to `COc1ccc2c(c1)C(=C1CCCC1)C(C)(C)C(=S)N2` [Compound 140], for which the figures for the IC50 (in assay [1]; in the assay on HIV (setting [3])) were 17.4 nM and 6 ng/mL (≈ 0.0209 µM), respectively. Moreover, the MIC against HIV (setting [2]) amounted to 200 ng/mL (≈ 0.696 µM).

For the compound `CCC=C1c2cc(OC)ccc2NC(=S)C1(C)C` [Compound 45], the IC50 is 9 nM in assay [1] (molar value in parentheses), 9.18 nM in assay [1] and 2 ng/mL (≈ 0.00765 µM) in the assay on HIV (setting [3]). The compound also had an MIC against HIV (setting [2]) of 4 ng/mL (≈ 0.0153 µM).

Turning to `CCCC=C1c2ccccc2NC(=S)C12CCCC2` [Compound 8, E/Z-4-n-butylene-3,3-cyclopentylidene-3,4-dihydroquinolin-2(1H)-thione], the IC50 in assay [1] (molar value in parentheses) is 16 nM; in assay [1], 14.7 nM; in the assay on HIV it was 1.6 ng/mL (≈ 0.00589 µM). The MIC in the assay on HIV (setting [2]) was 8 ng/mL (≈ 0.0295 µM).

As to `CCC=C1c2cc(Cl)ccc2NC(=S)C1(C)C` [Compound 4], the IC50 is 8 nM in assay [1] (molar value in parentheses), 7.52 nM in assay [1] and below 0.32 ng/mL in the assay with HIV (setting [3]). Also, in the assay on HIV (setting [2]), the MIC was determined as 1.6 ng/mL (≈ 0.00602 µM).

`CC(C)CC=C1c2ccccc2NC(=O)C12CCCC2` [Compound 67]: the IC50 in assay [1] (molar value in parentheses) was 91 nM; in assay [1], 89.1 nM; in the assay with HIV (setting [3]), around 20 ng/mL (≈ 0.0742 µM). In the assay with HIV (setting [2]), this compound showed an MIC below 100 ng/mL.

Regarding `CC(C)CC=C1c2cc(Cl)ccc2NC(=S)C1(C)C` [Compound 20], the IC50 in assay [1] (molar value in parentheses) is 22 nM; in assay [1], 21.4 nM; in the assay on HIV (setting [3]) it was 1.5 ng/mL (≈ 0.0051 µM). In addition, the MIC with HIV (setting [2]) was below 8 ng/mL.

Consider `CC(C)C=C1c2cc(Cl)ccc2NC(=S)C1(C)C` [Compound 18], for which the IC50 in assay [1] (first value of compound 18, unit as printed) is 54.3 nM; in assay [1] (molar value in parentheses), 55 nM; in the assay with HIV (setting [3]), 2 ng/mL (≈ 0.00715 µM). The compound also came in with an MIC with HIV (setting [2]) below 8 ng/mL.

In the case of `C=CC=C1c2cc(Cl)ccc2NC(=S)C1(C)C` [Compound 14], the IC50 in assay [1] (molar value in parentheses) was 18 nM; in assay [1] it was 15.2 nM; with HIV (setting [3]) it was 5 ng/mL (≈ 0.019 µM). Besides, the MIC against HIV (setting [2]) was below 8 ng/mL.

With `COc1ccc2c(c1)C(=CC(C)C)C(C)(C)C(=S)N2` [Compound 61], the IC50 in assay [1] (molar value in parentheses) was 62 nM; in assay [1], 61.7 nM; with HIV (setting [3]), around 4 ng/mL (≈ 0.0145 µM). Further, the MIC with HIV (setting [2]) was determined as 20 ng/mL (≈ 0.0726 µM).

Take `CCCC=C1c2cc(Cl)ccc2NC(=O)C1(C)C` [Compound 2, 4-n-Butylene-6-chloro-3,4-dihydro-3,3-dimethylquinolin-2(1H)-one]: the values for the IC50 (in assay [1] (molar value in parentheses); in assay [1]; in the assay on HIV (setting [3])) were 63 nM, 64.5 nM and around 15 ng/mL (≈ 0.0569 µM), respectively. In the assay with HIV (setting [2]), this compound gave an MIC of 100 ng/mL (≈ 0.379 µM).

Turning to `CC(C)CC=C1c2cc(Cl)ccc2NC(=O)C1(C)C` [Compound 19], the IC50 was 37 nM in assay [1] (molar value in parentheses), 37.1 nM in assay [1] and 8 ng/mL (≈ 0.0288 µM) in the assay on HIV (setting [3]).

Turning to `CCOc1ccc2c(c1)C(=CCC(C)C)C(C)(C)C(=S)N2` [Compound 59], the values for the IC50 (in assay [1] (molar value in parentheses); in assay [1] (unit as printed for compound 59); with HIV (setting [3])) were 46 nM, 46.1 nM and around 8 ng/mL (≈ 0.0264 µM), respectively. Also, the MIC in the assay with HIV (setting [2]) is below 20 ng/mL.

As for `CCCC=C1c2ccccc2NC(=O)C1(CC)CC` [Compound 48], the IC50 in assay [1] (molar value in parentheses) was 54 nM; in assay [1], 54.4 nM; in the assay on HIV (setting [3]), around 10 ng/mL (≈ 0.0389 µM). The MIC in the assay on HIV (setting [2]) is below 80 ng/mL.

In the case of `CCCC=C1c2cc(Cl)ccc2NC(=NO)C1(C)C` [Compound 60], the IC50 in assay [1] (molar value in parentheses) is 12 nM; in assay [1], 10.8 nM; in the assay with HIV (setting [3]) it was around 0.3 ng/mL (≈ 0.00108 µM). The same compound registered an MIC against HIV (setting [2]) of 1.6 ng/mL (≈ 0.00574 µM).
